{"source": "patent US12551454B2", "about": "“Isoproterenol compositions and methods” (Endo Operations Limited, priority 2020, dated 2026)", "origin": "cited, not measured here", "conditions": "more potent than its (S)-enantiomer"}
{"smiles": "CC(C)NC[C@H](O)c1ccc(O)c(O)c1", "note": "(single isomer, unassigned) [(R)-enantiomer of Isoproterenol]", "values": [{"measurement": "potency relative to (S)-enantiomer", "value": "~90", "unit": "times"}]}
